For one molecule, inhibition, Ki and EC50 results are on record in ChEMBL document CHEMBL1148572, “1-((S)-2-aminopropyl)-1H-indazol-6-ol: a potent peripherally acting 5-HT2 receptor agonist with ocular hypotensive activity” (J Med Chem, 2006).

Data set [1] deals with Glutamate [NMDA] receptor (Homo sapiens) (UniProt Q05586+Q12879+Q13224+O15399+O60391+Q14957+Q8TCU5). Nature of the data set: Inhibition of agonist site of NMDA receptor at 1 nM. It counts as functional.
Data set [2] in a line: Inhibition of alpha-bungarotoxin insensitive nicotinic receptor at 1 nM.
For data set [3], the target named is T1, monoamine oxidase A (MAO-A) (Rattus norvegicus, UniProt P21396).
T1 sequence (P21396 whole entry): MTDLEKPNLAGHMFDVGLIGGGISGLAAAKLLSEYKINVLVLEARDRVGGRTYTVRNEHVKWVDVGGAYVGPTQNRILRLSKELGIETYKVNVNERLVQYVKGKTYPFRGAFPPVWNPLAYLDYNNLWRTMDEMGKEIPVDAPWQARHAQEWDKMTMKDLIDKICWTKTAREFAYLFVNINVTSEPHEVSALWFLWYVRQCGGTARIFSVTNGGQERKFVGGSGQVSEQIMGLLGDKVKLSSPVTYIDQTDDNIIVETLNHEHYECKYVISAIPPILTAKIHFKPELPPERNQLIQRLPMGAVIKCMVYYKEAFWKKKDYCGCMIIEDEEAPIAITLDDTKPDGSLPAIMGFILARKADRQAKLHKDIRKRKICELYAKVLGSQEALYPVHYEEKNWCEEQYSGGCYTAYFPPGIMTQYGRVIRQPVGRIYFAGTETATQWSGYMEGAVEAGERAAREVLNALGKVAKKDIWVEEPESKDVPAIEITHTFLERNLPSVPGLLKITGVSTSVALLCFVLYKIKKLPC
In words: Inhibition of monoamine oxidase A in rat brain at 100 nM. It counts as tissue-based.

For data set [4], the target named is T2, monoamine oxidase B (MAO-B) (Rattus norvegicus, UniProt P19643).
T2 sequence (P19643 whole entry): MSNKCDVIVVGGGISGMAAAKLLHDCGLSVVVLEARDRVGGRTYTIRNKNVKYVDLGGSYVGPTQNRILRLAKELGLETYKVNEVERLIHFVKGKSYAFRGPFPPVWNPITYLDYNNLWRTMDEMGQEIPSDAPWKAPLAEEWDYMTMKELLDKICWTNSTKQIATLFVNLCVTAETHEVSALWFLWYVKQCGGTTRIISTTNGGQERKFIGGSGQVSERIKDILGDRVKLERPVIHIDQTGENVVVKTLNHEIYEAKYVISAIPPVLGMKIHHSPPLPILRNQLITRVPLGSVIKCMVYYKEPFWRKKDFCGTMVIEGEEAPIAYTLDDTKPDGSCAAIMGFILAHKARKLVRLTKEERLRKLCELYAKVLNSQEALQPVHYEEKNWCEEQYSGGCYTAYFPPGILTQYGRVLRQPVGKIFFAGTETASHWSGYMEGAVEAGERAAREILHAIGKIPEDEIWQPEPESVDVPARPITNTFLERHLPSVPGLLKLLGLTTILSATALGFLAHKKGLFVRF
In words: Inhibition of monoamine oxidase B in rat brain at 1 nM. It counts as tissue-based.

Data set [5] deals with 5-hydroxytryptamine receptor 2A (Homo sapiens, UniProt P28223). It counts as cell-based, CHO.
Chain of 5-hydroxytryptamine receptor 2A (P28223 whole entry): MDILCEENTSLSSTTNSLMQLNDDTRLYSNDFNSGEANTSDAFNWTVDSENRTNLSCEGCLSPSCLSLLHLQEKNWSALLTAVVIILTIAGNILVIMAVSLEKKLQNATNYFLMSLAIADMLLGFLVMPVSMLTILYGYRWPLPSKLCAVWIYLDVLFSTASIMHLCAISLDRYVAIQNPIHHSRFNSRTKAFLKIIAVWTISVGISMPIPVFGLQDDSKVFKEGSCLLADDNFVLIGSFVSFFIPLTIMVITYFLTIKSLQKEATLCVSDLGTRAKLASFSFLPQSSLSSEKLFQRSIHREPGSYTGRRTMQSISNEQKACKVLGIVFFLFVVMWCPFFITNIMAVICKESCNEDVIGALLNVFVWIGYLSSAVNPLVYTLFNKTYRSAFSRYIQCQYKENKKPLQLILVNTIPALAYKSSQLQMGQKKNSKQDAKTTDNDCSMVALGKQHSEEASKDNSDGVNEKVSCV
Data set [6] deals with T3, Cysteinyl leukotriene receptor 1 (Homo sapiens) (UniProt Q9Y271).
T3 sequence (whole entry): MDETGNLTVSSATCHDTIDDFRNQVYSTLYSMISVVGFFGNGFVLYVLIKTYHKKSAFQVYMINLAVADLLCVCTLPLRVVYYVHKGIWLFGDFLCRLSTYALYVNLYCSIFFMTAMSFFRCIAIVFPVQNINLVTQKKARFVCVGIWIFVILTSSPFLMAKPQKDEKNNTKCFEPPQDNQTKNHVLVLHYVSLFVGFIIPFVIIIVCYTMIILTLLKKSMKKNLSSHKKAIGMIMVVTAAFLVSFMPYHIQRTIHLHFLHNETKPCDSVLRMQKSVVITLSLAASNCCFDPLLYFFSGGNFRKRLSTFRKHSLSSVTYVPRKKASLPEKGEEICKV
Nature of the data set: Inhibition of leukotriene D4 at 1 nM.

For data set [7], the target named is T3, Cysteinyl leukotriene receptor 1 (Homo sapiens). Nature of the data set: Inhibition of leukotriene D4 at 100 nM.
The target in data set [8] is Platelet-activating factor receptor (Homo sapiens) (UniProt P25105). In words: Inhibition of PAF at 1 nM.
Chain of Platelet-activating factor receptor (Homo sapiens) (P25105 whole entry): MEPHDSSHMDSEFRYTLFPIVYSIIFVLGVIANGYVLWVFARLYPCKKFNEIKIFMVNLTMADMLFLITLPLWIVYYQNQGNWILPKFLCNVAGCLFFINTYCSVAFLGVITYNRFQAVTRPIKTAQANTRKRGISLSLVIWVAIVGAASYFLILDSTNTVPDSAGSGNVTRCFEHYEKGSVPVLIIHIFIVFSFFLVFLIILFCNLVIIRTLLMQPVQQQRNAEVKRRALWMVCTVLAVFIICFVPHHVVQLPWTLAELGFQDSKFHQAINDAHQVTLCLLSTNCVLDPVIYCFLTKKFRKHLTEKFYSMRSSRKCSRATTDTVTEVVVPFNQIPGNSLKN
Data set [9] deals with T4, B2 bradykinin receptor (Homo sapiens) (UniProt P30411).
T4 sequence (whole entry): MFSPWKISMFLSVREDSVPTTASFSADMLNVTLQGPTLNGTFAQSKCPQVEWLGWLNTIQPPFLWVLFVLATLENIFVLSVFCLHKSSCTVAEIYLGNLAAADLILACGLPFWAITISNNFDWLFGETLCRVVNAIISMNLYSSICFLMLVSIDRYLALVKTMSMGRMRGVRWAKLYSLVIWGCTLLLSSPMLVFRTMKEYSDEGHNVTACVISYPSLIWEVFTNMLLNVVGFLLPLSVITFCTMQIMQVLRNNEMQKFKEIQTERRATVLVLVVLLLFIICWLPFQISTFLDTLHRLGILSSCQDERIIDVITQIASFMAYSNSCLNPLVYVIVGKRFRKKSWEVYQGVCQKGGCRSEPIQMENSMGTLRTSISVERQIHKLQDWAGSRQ
Nature of the data set: Inhibition of bradykinin 2 receptor at 100 nM.

A short description of data set [10]: Inhibition of non selective binding to VIP at 10 uM.
The nature of data set [11]: Inhibition of P2Y purinergic receptor at 10 uM.
Data set [12] has as its target Sigma non-opioid intracellular receptor 1 (Homo sapiens) (UniProt Q99720). In words: Inhibition of non selective binding to sigma receptor at 10 uM.
The target of data set [13] is 5-hydroxytryptamine receptor 2B (Rattus norvegicus, UniProt P30994). In words: Activity against 5HT2B receptor in longitudinal stomach fundus strips in wistar rats.
Chain of 5-hydroxytryptamine receptor 2B (P30994 whole entry): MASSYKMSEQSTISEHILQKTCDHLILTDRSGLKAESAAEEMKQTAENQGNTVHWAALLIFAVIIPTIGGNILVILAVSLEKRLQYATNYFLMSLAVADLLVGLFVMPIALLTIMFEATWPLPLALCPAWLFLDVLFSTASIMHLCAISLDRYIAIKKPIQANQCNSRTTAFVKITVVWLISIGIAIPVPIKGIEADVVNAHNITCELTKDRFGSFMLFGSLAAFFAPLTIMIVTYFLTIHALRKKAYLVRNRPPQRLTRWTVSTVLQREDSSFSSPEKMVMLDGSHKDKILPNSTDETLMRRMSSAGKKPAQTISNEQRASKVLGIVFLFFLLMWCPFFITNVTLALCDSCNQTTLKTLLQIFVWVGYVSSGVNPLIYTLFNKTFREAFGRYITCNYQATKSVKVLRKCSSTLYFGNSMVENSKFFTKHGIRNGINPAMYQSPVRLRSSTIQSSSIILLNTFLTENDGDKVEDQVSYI
For data set [14], the target named is T5, Alpha-2A adrenergic receptor (Homo sapiens, UniProt P08913).
T5 sequence (P08913 whole entry): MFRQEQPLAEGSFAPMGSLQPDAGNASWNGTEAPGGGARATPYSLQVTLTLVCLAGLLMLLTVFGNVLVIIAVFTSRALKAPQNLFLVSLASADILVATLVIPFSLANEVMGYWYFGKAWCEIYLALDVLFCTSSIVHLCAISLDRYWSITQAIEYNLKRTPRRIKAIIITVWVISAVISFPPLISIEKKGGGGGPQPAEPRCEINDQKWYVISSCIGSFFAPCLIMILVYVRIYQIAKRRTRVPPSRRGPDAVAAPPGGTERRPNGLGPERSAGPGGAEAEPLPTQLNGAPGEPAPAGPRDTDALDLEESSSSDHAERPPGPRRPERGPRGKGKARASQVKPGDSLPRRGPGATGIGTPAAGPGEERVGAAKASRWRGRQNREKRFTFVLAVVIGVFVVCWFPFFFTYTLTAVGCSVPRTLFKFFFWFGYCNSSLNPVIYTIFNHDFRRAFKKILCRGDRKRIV
In words: Displacement of [3H]clonidine from cloned human adrenergic alpha2A receptor expressed in Sf9 cells.

In data set [15] the target is Alpha-2B adrenergic receptor (Homo sapiens, UniProt P18089). In words: Activity at adrenergic alpha-2B receptor expressed in opposum kidney OK cell by adenylyl cyclase assay. It counts as functional, cell-based.
Chain of Alpha-2B adrenergic receptor (P18089 whole entry): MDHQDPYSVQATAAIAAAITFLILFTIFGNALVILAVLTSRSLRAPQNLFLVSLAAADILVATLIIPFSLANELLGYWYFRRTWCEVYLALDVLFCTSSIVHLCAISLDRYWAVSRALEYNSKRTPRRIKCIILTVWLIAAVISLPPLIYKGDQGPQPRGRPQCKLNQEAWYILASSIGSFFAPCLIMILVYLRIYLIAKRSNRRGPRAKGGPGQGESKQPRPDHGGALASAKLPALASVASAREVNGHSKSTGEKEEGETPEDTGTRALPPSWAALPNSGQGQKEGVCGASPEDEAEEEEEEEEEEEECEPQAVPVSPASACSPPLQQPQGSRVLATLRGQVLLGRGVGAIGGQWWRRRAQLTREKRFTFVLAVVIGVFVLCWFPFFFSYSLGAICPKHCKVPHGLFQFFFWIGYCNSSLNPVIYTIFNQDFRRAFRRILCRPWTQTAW

Chain of Sigma non-opioid intracellular receptor 1 (Homo sapiens) (Q99720 whole entry): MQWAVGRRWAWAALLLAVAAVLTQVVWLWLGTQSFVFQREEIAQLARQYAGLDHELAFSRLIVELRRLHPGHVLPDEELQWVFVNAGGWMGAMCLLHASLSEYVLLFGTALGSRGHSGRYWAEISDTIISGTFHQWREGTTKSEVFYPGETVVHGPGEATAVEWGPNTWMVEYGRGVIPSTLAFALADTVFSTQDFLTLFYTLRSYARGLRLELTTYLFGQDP

In the case of `C[C@H](N)Cn1ncc2ccc(O)cc21`, the inhibition in data set [1] is 14.9%; in data set [2] it was 7.15%; in data set [6] it was 2.65%; in data set [7], 7.43%; in data set [8], -6.53%; in [9], 0.41%. Besides, the values for the inhibition in [10], in data set [11] and in [12] were -5.59%, 12.2% and -7.73%, respectively. Moreover, the inhibition at 0.1 µM in data set [3] is -22.3%. The inhibition at 0.001 µM in [4] is -15.4%. Moreover, the results for the Ki in data set [5] and in data set [14] were 12 nM and 2270 nM, respectively. The concentration for a half-maximal effect (EC50) in data set [13] worked out at 2 nM; in [15], 3050 nM.
